Laboratory results as given in ChEMBL document CHEMBL4219088, “Novel 4-aminoquinazoline derivatives induce growth inhibition, cell cycle arrest and apoptosis via PI3Kα inhibition” (Bioorg Med Chem, 2018).
One block for each compound: values may come before it. The source made the active and inactive calls. No cut-off for these calls is given here.

Assays:
[1] = test system: HCT-116; experiment: Antiproliferative activity against human HCT116 cells after 72 hrs by sulforhodamine B assay; type: functional, cell-based; conditions: HCT-116, 72 h
[2] = test system: SK-HEP1; experiment: Antiproliferative activity against human SKHEP1 cells after 72 hrs by sulforhodamine B assay; type: functional, cell-based; conditions: SK-HEP1, 72 h
[3] = test system: MDA-MB-231; experiment: Antiproliferative activity against human MDA-MB-231 cells after 72 hrs by sulforhodamine B assay; type: functional, cell-based; conditions: MDA-MB-231, 72 h
[4] = test system: SNU-638; experiment: Antiproliferative activity against human SNU638 cells after 72 hrs by sulforhodamine B assay; type: functional, cell-based; conditions: SNU-638, 72 h
[5] = test system: A549; experiment: Antiproliferative activity against human A549 cells after 72 hrs by sulforhodamine B assay; type: functional, cell-based; conditions: A549, 72 h
[6] = test system: MCF7; experiment: Antiproliferative activity against human MCF7 cells after 72 hrs by sulforhodamine B assay; type: functional, cell-based; conditions: MCF7, 72 h
[7] = test system: MRC5; experiment: Antiproliferative activity against human MRC5 cells after 72 hrs by sulforhodamine B assay; type: cell-based; conditions: MRC5, 72 h
[8] = test system: HEK293; experiment: Antiproliferative activity against HEK293 cells after 72 hrs by sulforhodamine B assay; type: cell-based; conditions: Homo sapiens, HEK293, 72 h
[9] = biological target: PI3-kinase p110-alpha/p85-alpha (Homo sapiens, UniProt P42336); experiment: Inhibition of recombinant N-terminal His6-tagged full length PI3K p110alpha (unknown origin)/recombinant untagged full length p85alpha (unknown origin) expressed in baculovirus infected Sf21 insect cells by ELISA
Sequence of PI3-kinase p110-alpha/p85-alpha (P27986 whole entry): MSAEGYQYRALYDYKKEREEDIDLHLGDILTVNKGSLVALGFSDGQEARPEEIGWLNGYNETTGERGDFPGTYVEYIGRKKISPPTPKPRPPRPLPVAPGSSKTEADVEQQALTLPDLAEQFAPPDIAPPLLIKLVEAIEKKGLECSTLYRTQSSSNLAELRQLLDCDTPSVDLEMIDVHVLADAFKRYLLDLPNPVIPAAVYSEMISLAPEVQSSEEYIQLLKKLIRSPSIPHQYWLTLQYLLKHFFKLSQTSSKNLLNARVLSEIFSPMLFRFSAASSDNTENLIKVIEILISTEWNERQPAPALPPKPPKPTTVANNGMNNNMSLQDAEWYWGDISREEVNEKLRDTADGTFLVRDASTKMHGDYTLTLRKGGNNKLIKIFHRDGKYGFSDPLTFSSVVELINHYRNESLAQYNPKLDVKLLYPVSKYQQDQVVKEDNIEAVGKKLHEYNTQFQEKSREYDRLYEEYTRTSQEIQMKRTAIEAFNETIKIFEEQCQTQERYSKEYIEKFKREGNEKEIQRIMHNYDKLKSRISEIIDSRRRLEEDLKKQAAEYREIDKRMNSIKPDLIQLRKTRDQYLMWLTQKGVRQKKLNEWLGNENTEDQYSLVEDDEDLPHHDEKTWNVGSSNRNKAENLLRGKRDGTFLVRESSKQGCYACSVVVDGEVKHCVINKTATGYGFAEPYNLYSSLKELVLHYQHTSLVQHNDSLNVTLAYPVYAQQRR
Sequence of PI3-kinase p110-alpha/p85-alpha (P42336 whole entry): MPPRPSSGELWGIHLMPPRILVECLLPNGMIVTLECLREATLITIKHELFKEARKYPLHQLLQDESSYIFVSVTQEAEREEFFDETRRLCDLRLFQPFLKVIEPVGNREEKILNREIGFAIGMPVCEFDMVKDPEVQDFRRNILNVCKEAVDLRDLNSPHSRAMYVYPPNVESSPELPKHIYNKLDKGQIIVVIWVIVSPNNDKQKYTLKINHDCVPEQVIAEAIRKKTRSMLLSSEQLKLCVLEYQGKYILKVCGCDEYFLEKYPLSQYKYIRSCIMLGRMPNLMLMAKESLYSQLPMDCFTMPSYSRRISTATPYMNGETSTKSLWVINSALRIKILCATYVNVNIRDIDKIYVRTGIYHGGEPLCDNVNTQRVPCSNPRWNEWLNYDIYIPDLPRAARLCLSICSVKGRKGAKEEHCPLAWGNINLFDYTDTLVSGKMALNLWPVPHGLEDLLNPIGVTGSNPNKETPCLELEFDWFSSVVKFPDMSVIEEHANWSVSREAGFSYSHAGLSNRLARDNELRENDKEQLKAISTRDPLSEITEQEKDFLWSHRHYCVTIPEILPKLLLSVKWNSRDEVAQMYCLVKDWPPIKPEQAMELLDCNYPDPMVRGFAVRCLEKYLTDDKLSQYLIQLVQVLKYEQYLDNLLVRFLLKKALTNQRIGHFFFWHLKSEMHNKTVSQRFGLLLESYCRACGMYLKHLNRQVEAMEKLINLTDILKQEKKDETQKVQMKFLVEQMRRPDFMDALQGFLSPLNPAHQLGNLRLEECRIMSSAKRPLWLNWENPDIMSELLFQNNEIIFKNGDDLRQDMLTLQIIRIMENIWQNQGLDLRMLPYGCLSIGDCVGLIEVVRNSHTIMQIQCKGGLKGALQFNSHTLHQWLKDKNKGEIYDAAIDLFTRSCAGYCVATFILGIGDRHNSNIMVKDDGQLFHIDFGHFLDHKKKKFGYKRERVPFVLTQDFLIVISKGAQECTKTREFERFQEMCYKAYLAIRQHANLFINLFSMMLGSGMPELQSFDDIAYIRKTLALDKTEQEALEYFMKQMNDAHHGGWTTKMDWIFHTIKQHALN

[10] = biological target: PI3K p110 beta/p85 alpha (Homo sapiens, UniProt P42338); experiment: Inhibition of N-terminal His6-tagged recombinant full-length PI3Kbeta (unknown origin)/untagged recombinant full length p85alpha expressed in baculovirus infected Sf21 insect cells by ELISA
[11] = biological target: Phosphatidylinositol 4,5-bisphosphate 3-kinase catalytic subunit gamma isoform (Homo sapiens, UniProt P48736); experiment: Inhibition of recombinant human N-terminal His6-tagged full length PI3K p120gamma expressed in baculovirus infected Sf21 insect cells by ELISA
Sequence of Phosphatidylinositol 4,5-bisphosphate 3-kinase catalytic subunit gamma isoform (P48736 whole entry, canonical isoform): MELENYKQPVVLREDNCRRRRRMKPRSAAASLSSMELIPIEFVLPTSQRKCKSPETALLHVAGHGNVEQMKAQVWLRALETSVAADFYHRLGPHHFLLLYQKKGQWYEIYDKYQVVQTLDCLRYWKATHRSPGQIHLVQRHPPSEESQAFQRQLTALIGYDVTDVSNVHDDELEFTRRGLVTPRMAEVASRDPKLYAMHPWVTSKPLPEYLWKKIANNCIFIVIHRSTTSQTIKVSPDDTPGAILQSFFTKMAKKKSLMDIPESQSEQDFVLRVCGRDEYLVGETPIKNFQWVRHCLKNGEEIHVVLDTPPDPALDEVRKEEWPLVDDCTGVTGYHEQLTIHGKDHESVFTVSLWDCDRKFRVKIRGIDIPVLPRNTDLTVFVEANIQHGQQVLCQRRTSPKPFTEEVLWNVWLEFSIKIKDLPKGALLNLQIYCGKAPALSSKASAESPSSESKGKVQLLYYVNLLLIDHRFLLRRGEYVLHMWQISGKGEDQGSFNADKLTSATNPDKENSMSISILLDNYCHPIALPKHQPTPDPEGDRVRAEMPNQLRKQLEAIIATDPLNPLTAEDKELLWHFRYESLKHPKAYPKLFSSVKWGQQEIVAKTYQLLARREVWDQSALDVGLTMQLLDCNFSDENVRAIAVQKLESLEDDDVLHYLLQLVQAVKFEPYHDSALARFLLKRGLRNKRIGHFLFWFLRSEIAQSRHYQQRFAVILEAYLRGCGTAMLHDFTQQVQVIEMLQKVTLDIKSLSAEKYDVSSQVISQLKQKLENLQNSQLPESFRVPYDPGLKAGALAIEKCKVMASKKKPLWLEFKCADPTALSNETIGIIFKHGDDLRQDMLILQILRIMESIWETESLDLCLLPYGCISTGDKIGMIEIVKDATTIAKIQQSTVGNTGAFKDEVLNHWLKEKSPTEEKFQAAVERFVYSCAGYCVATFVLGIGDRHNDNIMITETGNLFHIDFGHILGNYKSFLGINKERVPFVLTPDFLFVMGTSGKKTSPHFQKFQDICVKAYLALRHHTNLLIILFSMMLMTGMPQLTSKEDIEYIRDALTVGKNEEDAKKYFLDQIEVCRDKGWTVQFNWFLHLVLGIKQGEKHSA

[12] = biological target: PI3-kinase p110-delta/p85-alpha (Homo sapiens, UniProt O00329); experiment: Inhibition of recombinant N-terminal full length human PI3K p110delta/recombinant untagged full length human p85alpha expressed in baculovirus infected Sf21 insect cells by ELISA
Sequence of PI3-kinase p110-delta/p85-alpha (P27986 whole entry, canonical isoform): as the sequence (P27986 whole entry) above
Sequence of PI3-kinase p110-delta/p85-alpha (O00329 whole entry, canonical isoform): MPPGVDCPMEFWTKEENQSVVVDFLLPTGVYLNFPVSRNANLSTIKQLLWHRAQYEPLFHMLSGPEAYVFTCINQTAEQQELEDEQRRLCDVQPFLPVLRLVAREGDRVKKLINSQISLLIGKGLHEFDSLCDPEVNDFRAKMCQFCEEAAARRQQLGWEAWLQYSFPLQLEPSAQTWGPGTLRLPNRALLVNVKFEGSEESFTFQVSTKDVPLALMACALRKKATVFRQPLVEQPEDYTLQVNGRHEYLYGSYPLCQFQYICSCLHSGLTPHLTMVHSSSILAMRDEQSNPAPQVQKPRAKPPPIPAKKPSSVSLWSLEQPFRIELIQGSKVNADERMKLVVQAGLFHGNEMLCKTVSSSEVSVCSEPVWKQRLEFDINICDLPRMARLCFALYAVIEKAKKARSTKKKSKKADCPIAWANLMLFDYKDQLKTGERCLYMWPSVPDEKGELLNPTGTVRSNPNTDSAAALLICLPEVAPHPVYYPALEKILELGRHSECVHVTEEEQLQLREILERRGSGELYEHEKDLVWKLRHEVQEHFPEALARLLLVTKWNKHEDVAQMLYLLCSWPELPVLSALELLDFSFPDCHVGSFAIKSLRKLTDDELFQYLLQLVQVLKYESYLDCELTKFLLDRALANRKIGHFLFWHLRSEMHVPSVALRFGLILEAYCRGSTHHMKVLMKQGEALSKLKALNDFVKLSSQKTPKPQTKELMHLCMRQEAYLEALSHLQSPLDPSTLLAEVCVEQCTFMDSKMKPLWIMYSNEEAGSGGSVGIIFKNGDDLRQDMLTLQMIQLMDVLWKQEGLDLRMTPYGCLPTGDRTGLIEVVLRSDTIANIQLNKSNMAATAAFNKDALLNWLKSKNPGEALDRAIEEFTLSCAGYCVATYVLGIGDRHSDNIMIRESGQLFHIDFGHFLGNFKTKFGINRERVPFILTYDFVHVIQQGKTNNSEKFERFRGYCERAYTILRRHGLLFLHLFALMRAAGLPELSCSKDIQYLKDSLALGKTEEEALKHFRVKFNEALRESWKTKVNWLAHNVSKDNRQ

[13] = biological target: Phosphatidylinositol 4,5-bisphosphate 3-kinase catalytic subunit alpha isoform (Homo sapiens) (UniProt P42336); experiment: Inhibition of PI3Kalpha phosphorylation in human HCT116 cells at 0.5 to 2 uM after 24 hrs by Western blot analysis; type: cell-based
Sequence of Phosphatidylinositol 4,5-bisphosphate 3-kinase catalytic subunit alpha isoform (Homo sapiens) (P42336 whole entry, canonical isoform): as the sequence (P42336 whole entry) above

[14] = biological target: Phosphatidylinositol 4,5-bisphosphate 3-kinase catalytic subunit alpha isoform (Homo sapiens) (UniProt P42336); experiment: Inhibition of PI3Kalpha in human HCT116 cells assessed as reduction in Akt phosphorylation at Ser473 residues at 0.5 to 2 uM after 24 hrs by Western blot analysis; type: cell-based
[15] = biological target: Phosphatidylinositol 4,5-bisphosphate 3-kinase catalytic subunit alpha isoform (Homo sapiens) (UniProt P42336); experiment: Inhibition of PI3Kalpha in human HCT116 cells assessed as reduction in GSK3beta phosphorylation at 0.5 to 2 uM after 24 hrs by Western blot analysis; type: cell-based
[16] = biological target: Phosphatidylinositol 4,5-bisphosphate 3-kinase catalytic subunit alpha isoform (Homo sapiens) (UniProt P42336); experiment: Inhibition of PI3Kalpha in human HCT116 cells assessed as reduction in Akt expression level at Ser473 residues at 1 uM after 8 hrs by DAPI staining based confocal microscopy; type: cell-based
[17] = test system: HCT-116; experiment: Cell cycle arrest in human HCT116 cells assessed as accumulation at subG1 phase at 0.5 uM after 24 hrs by propidium iodide staining based flow cytometry (reference value: 2.25%); type: functional
[18] = test system: HCT-116; experiment: Cell cycle arrest in human HCT116 cells assessed as accumulation at G0/G1 phase at 0.5 uM after 24 hrs by propidium iodide staining based flow cytometry (reference value: 44.01%); type: functional
[19] = test system: HCT-116; experiment: Cell cycle arrest in human HCT116 cells assessed as accumulation at S phase at 0.5 uM after 24 hrs by propidium iodide staining based flow cytometry (reference value: 11.36%); type: functional
[20] = test system: HCT-116; experiment: Cell cycle arrest in human HCT116 cells assessed as accumulation at G2/M phase at 0.5 uM after 24 hrs by propidium iodide staining based flow cytometry (reference value: 22.24%); type: functional
[21] = test system: HCT-116; experiment: Cell cycle arrest in human HCT116 cells assessed as accumulation at subG1 phase at 1 uM after 24 hrs by propidium iodide staining based flow cytometry (reference value: 2.25%); type: functional
[22] = test system: HCT-116; experiment: Cell cycle arrest in human HCT116 cells assessed as accumulation at G0/G1 phase at 1 uM after 24 hrs by propidium iodide staining based flow cytometry (reference value: 44.01%); type: functional
[23] = test system: HCT-116; experiment: Cell cycle arrest in human HCT116 cells assessed as accumulation at S phase at 1 uM after 24 hrs by propidium iodide staining based flow cytometry (reference value: 11.36%); type: functional
[24] = test system: HCT-116; experiment: Cell cycle arrest in human HCT116 cells assessed as accumulation at G2/M phase at 1 uM after 24 hrs by propidium iodide staining based flow cytometry (reference value: 22.24%); type: functional
[25] = test system: HCT-116; experiment: Cell cycle arrest in human HCT116 cells assessed as accumulation at subG1 phase at 2 uM after 24 hrs by propidium iodide staining based flow cytometry (reference value: 2.25%); type: functional
[26] = test system: HCT-116; experiment: Cell cycle arrest in human HCT116 cells assessed as accumulation at G0/G1 phase at 2 uM after 24 hrs by propidium iodide staining based flow cytometry (reference value: 44.01%); type: functional
[27] = test system: HCT-116; experiment: Cell cycle arrest in human HCT116 cells assessed as accumulation at S phase at 2 uM after 24 hrs by propidium iodide staining based flow cytometry (reference value: 11.36%); type: functional
[28] = test system: HCT-116; experiment: Cell cycle arrest in human HCT116 cells assessed as accumulation at G2/M phase at 2 uM after 24 hrs by propidium iodide staining based flow cytometry (reference value: 22.24%); type: functional
[29] = test system: HCT-116; experiment: Induction of apoptosis in human HCT116 cells assessed as viable cells at 1 uM after 48 hrs by Annexin V-FITC/propidium iodide staining based flow cytometry (reference value: 94.06%); type: functional; conditions: HCT-116, 48 h, read-out: Activity
[30] = test system: HCT-116; experiment: Induction of apoptosis in human HCT116 cells assessed as early apoptotic cells at 1 uM after 48 hrs by Annexin V-FITC/propidium iodide staining based flow cytometry (reference value: 3.72%); type: functional
[31] = test system: HCT-116; experiment: Induction of apoptosis in human HCT116 cells assessed as late apoptotic cells at 1 uM after 48 hrs by Annexin V-FITC/propidium iodide staining based flow cytometry (reference value: 1.43%); type: functional
[32] = test system: HCT-116; experiment: Induction of apoptosis in human HCT116 cells assessed as necrotic cells at 1 uM after 48 hrs by Annexin V-FITC/propidium iodide staining based flow cytometry (reference value: 0.79%); type: functional
[33] = test system: HCT-116; experiment: Induction of apoptosis in human HCT116 cells assessed as viable cells at 2 uM after 48 hrs by Annexin V-FITC/propidium iodide staining based flow cytometry (reference value: 94.06%); type: functional; conditions: HCT-116, 48 h, read-out: Activity
[34] = test system: HCT-116; experiment: Induction of apoptosis in human HCT116 cells assessed as early apoptotic cells at 2 uM after 48 hrs by Annexin V-FITC/propidium iodide staining based flow cytometry (reference value: 3.72%); type: functional
[35] = test system: HCT-116; experiment: Induction of apoptosis in human HCT116 cells assessed as late apoptotic cells at 2 uM after 48 hrs by Annexin V-FITC/propidium iodide staining based flow cytometry (reference value: 1.43%); type: functional
[36] = test system: HCT-116; experiment: Induction of apoptosis in human HCT116 cells assessed as necrotic cells at 2 uM after 48 hrs by Annexin V-FITC/propidium iodide staining based flow cytometry (reference value: 0.79%); type: functional
[37] = test system: HCT-116; experiment: Induction of apoptosis in human HCT116 cells assessed as viable cells at 4 uM after 48 hrs by Annexin V-FITC/propidium iodide staining based flow cytometry (reference value: 94.06%); type: functional; conditions: HCT-116, 48 h, read-out: Activity
[38] = test system: HCT-116; experiment: Induction of apoptosis in human HCT116 cells assessed as early apoptotic cells at 4 uM after 48 hrs by Annexin V-FITC/propidium iodide staining based flow cytometry (reference value: 3.72%); type: functional
[39] = test system: HCT-116; experiment: Induction of apoptosis in human HCT116 cells assessed as late apoptotic cells at 4 uM after 48 hrs by Annexin V-FITC/propidium iodide staining based flow cytometry (reference value: 1.43%); type: functional
[40] = test system: HCT-116; experiment: Induction of apoptosis in human HCT116 cells assessed as necrotic cells at 4 uM after 48 hrs by Annexin V-FITC/propidium iodide staining based flow cytometry (reference value: 0.79%); type: functional
[41] = test system: HCT-116; experiment: Induction of apoptosis in human HCT116 cells assessed as increase in cleaved caspase 9 level at 4 uM after 48 hrs by Western blot analysis; type: functional, cell-based
[42] = test system: HCT-116; experiment: Induction of apoptosis in human HCT116 cells assessed as increase in cleaved caspase 3 level at 4 uM after 48 hrs by Western blot analysis; type: functional, cell-based
[43] = test system: HCT-116; experiment: Induction of apoptosis in human HCT116 cells assessed as increase in cleaved PARP level at 4 uM after 48 hrs by Western blot analysis; type: functional, cell-based
[44] = biological target: Phosphatidylinositol 4,5-bisphosphate 3-kinase catalytic subunit alpha isoform (Homo sapiens) (UniProt P42336); experiment: Inhibition of PI3Kalpha in human HCT116 cells assessed as reduction in Akt phosphorylation at Ser473 residues after 24 hrs by Western blot analysis; type: cell-based
[45] = biological target: Phosphatidylinositol 4,5-bisphosphate 3-kinase catalytic subunit alpha isoform (Homo sapiens) (UniProt P42336); experiment: Inhibition of PI3Kalpha in human HCT116 cells assessed as reduction in GSK3beta phosphorylation after 24 hrs by Western blot analysis; type: cell-based
[46] = test system: HCT-116; experiment: Induction of apoptosis in human HCT116 cells assessed as decrease in Bcl-2 level at 1 to 4 uM after 48 hrs by Western blot analysis; type: functional, cell-based
[47] = test system: HCT-116; experiment: Induction of apoptosis in human HCT116 cells assessed as increase in Bax level at 1 to 4 uM after 48 hrs by Western blot analysis; type: functional, cell-based
[48] = test system: HCT-116; experiment: Induction of apoptosis in human HCT116 cells assessed as increase in cytochrome C level at 1 to 4 uM after 48 hrs by Western blot analysis; type: functional, cell-based
[49] = test system: HCT-116; experiment: Upregulation of p27 protein expression in human HCT116 cells at 0.5 to 2 uM after 24 hrs by Western blot analysis; type: functional, cell-based
[50] = test system: HCT-116; experiment: Downregulation of cyclin D1 protein expression in human HCT116 cells at 0.5 to 2 uM after 24 hrs by Western blot analysis; type: functional, cell-based
[51] = test system: HCT-116; experiment: Downregulation of CDK2 protein expression in human HCT116 cells at 0.5 to 2 uM after 24 hrs by Western blot analysis; type: functional, cell-based

IC50 [1]: 2.2 µM | IC50 [2]: 4.68 µM | IC50 [3]: 1.54 µM | IC50 [4]: 1.26 µM | IC50 [5]: 2.78 µM | IC50 [6]: 3.66 µM
SMILES: COc1ncc(-c2ccc3ncnc(NCCCN(C)C)c3c2)cc1NS(=O)(=O)c1ccc(F)cc1F

IC50 [3]: 0.18 µM
SMILES: Cn1c(=O)n(-c2ccc(C(C)(C)C#N)cc2)c2c3cc(-c4cnc5ccccc5c4)ccc3ncc21 [DACTOLISIB]

IC50 [1]: 0.16 µM | IC50 [2]: 0.28 µM | IC50 [3]: 0.28 µM | IC50 [4]: 0.48 µM | IC50 [5]: 1.32 µM | IC50 [6]: 3.24 µM | IC50 [9]: 0.0136 µM | IC50 [10]: 0.396 µM | IC50 [11]: 0.117 µM | IC50 [12]: 0.102 µM | inhibition [13]: Active | inhibition [14]: Active | inhibition [15]: Active | inhibition [16]: Active | inhibition [44]: Dose-dependent effect | inhibition [45]: Dose-dependent effect
SMILES: CCCCS(=O)(=O)Nc1cc(-c2ccc3ncnc(NCCN(C)C)c3c2)cnc1OC
IC50 [7]: 18.5 µM | IC50 [8]: 12.6 µM | Activity [17]: 3.57% | Activity [18]: 46.16% | Activity [19]: 10.3% | Activity [20]: 20.53% | Activity [21]: 2.91% | Activity [22]: 54.1% | Activity [23]: 13.02% | Activity [24]: 15.33% | Activity [25]: 2.51% | Activity [26]: 61.01% | Activity [27]: 13.65% | Activity [28]: 10.99% | viability at 1 µM [29]: 85.5% | Activity [30]: 10.13% | Activity [31]: 2.89% | Activity [32]: 1.5% | viability at 2 µM [33]: 84.7% | Activity [34]: 10.2% | Activity [35]: 3.7% | Activity [36]: 1.39% | viability at 4 µM [37]: 83.3% | Activity [38]: 11.11% | Activity [39]: 4.6% | Activity [40]: 1.02% | Activity [41]: Active | Activity [42]: Active | Activity [43]: Active | Activity [46]: Active | Activity [47]: Active | Activity [48]: Active | Activity [49]: Active | Activity [50]: Active | Activity [51]: Active

IC50 [1]: 13.5 µM | IC50 [2]: 12.6 µM | IC50 [3]: 2.32 µM | IC50 [4]: 0.41 µM | IC50 [5]: 4.12 µM | IC50 [6]: 14.7 µM
SMILES: COc1ncc(-c2ccc3ncnc(NCCN(C)C)c3c2)cc1NS(C)(=O)=O
